# What was measured:
# Assay in all cases: biochemical
# AurA = target: T1, AurA (Homo sapiens, UniProt O14965)
# T1 construct: gene AURKA
# In short: (§1)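 Human kinases phosphorylating kinase-specific synthetic peptides, assayed by mobility shift (MSA) or IMAP fluorescence polarization, in 20 mM HEPES pH 7.5, 0.01% Triton X-100, 2 mM DTT with substrate/ATP-metal. Reactions ran 1 or 5 h at room temperature; activity = P/(P + S) from product and substrate peak heights.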
# MST4 = target: T2, MST4 (Homo sapiens, UniProt Q9P289)
# T2 construct: gene STK26
# In short: as §1
# ALK(C1156Y) = ALK(C1156Y) (Homo sapiens, UniProt Q9UM73, C1156Y)
# In short: as §1
# HIPK3 = HIPK3 (Homo sapiens, UniProt Q9H422)
# In short: as §1
# KDR = KDR (Homo sapiens, UniProt P35968)
# Chain of KDR (P35968 whole entry): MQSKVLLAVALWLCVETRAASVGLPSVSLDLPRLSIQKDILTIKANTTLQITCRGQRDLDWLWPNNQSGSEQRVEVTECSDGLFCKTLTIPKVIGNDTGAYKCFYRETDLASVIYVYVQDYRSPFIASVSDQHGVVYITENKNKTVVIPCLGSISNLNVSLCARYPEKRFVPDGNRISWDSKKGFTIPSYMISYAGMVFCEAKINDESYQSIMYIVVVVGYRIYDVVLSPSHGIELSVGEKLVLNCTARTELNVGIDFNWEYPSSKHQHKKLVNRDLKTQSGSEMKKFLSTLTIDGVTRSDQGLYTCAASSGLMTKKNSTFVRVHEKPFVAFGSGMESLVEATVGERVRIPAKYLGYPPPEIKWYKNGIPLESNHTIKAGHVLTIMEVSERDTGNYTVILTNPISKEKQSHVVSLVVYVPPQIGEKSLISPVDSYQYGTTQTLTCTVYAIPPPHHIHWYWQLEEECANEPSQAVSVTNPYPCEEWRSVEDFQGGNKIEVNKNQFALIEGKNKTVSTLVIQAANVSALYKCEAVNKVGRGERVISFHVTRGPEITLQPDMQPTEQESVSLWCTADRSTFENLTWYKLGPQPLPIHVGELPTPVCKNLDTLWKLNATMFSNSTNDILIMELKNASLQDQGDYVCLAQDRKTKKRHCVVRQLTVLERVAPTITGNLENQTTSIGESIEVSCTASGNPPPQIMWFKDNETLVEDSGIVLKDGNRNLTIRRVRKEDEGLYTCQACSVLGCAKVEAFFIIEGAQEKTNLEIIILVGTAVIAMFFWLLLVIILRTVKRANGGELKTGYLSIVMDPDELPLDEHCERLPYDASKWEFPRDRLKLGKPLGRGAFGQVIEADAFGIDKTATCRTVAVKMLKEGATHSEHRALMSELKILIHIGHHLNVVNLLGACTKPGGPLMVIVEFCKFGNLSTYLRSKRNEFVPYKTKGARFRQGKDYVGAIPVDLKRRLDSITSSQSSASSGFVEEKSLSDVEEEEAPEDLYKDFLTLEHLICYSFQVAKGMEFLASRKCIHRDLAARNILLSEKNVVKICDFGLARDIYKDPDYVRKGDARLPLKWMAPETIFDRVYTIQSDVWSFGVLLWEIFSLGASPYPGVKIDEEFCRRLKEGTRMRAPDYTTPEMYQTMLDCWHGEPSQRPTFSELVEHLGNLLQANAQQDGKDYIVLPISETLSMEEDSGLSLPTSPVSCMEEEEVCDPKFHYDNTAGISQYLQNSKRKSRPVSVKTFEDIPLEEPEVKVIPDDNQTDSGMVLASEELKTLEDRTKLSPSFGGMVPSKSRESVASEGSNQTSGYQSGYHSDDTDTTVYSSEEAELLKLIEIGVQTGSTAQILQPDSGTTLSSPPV
# In short: as §1
# CK2α1/β = target: T3, CK2α1/β (Homo sapiens, UniProt P68400)
# T3 construct: gene CSNK2A1
# In short: as §1
# CaMK1α = target: T4, CaMK1α (Homo sapiens, UniProt Q14012)
# T4 construct: gene CAMK1
# In short: as §1
# JNK1 = target: T5, JNK1 (Homo sapiens, UniProt P45983)
# T5 construct: gene MAPK8
# T5 sequence (P45983 whole entry): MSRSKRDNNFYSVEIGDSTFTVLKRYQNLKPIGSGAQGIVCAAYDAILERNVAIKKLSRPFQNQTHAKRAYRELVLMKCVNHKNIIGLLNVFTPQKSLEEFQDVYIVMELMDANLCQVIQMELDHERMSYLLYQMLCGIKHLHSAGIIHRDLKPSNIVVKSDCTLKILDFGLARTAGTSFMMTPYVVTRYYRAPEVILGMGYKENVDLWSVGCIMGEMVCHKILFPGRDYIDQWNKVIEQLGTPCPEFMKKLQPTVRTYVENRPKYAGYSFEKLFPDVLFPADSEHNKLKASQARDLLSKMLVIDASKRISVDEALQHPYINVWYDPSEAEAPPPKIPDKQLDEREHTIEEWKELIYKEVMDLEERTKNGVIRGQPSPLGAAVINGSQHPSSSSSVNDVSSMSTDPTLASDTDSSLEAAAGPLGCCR
# In short: as §1
# FGFR3(K650E) = FGFR3(K650E) (Homo sapiens, UniProt P22607, K650E)
# In short: as §1
# SIK = target: T6, SIK (Homo sapiens, UniProt P57059)
# T6 construct: gene SIK1
# In short: as §1
# HCK = HCK (Homo sapiens, UniProt P08631)
# In short: as §1
# MST3 = target: T7, MST3 (Homo sapiens, UniProt Q9Y6E0)
# T7 construct: gene STK24
# In short: as §1
# CaMK2α = target: T8, CaMK2α (Homo sapiens, UniProt Q9UQM7)
# T8 construct: gene CAMK2A
# In short: as §1
# EPHA6 = EPHA6 (Homo sapiens, UniProt Q9UF33)
# Chain of EPHA6 (Q9UF33 whole entry): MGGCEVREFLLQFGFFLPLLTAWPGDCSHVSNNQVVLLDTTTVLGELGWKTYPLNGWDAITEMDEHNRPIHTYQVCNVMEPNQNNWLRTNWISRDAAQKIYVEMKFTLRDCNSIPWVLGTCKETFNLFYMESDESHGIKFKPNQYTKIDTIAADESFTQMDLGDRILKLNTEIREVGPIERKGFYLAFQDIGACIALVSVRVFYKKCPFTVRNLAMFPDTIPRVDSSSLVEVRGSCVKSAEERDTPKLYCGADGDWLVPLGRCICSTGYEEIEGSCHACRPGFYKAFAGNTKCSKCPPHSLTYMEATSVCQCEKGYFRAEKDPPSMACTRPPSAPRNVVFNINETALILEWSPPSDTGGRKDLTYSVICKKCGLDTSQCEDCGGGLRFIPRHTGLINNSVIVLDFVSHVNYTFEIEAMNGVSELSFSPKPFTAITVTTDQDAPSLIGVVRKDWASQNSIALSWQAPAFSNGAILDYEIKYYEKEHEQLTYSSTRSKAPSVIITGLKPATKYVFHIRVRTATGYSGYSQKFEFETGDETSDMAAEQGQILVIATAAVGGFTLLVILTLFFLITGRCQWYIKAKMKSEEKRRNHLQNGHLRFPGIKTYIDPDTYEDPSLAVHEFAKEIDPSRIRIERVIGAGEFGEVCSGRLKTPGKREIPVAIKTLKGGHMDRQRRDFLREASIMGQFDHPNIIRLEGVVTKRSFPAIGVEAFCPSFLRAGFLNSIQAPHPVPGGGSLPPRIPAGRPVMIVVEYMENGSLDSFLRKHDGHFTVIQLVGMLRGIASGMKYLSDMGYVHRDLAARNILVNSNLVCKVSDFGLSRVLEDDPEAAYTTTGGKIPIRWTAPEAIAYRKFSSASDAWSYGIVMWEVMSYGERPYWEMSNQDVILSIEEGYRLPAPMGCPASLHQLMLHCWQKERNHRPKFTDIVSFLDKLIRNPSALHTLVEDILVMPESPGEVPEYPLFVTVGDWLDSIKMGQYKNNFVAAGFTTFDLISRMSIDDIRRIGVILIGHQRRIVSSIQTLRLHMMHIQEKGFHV
# In short: as §1
# MET(D1228H) = MET(D1228H) (Homo sapiens, UniProt P08581, D1228H)
# In short: as §1
# TRKA = target: T9, TRKA (Homo sapiens, UniProt P04629)
# T9 construct: gene NTRK1
# In short: as §1
# TSSK3 = TSSK3 (Homo sapiens, UniProt Q96PN8)
# Chain of TSSK3 (Q96PN8 whole entry): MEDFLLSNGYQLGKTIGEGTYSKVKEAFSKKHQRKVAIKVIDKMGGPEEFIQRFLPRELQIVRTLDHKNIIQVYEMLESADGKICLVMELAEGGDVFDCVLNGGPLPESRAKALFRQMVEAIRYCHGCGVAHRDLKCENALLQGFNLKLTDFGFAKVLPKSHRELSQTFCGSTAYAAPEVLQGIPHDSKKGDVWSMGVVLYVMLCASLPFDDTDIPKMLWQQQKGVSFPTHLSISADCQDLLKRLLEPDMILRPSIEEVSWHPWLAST
# In short: as §1
# FLT3 = FLT3 (Homo sapiens, UniProt P36888)
# In short: as §1
# PDGFRα(D842V) = target: T10, PDGFRα(D842V) (Homo sapiens, UniProt P16234, D842V)
# T10 construct: gene PDGFRA
# T10 sequence (P16234 whole entry D842V): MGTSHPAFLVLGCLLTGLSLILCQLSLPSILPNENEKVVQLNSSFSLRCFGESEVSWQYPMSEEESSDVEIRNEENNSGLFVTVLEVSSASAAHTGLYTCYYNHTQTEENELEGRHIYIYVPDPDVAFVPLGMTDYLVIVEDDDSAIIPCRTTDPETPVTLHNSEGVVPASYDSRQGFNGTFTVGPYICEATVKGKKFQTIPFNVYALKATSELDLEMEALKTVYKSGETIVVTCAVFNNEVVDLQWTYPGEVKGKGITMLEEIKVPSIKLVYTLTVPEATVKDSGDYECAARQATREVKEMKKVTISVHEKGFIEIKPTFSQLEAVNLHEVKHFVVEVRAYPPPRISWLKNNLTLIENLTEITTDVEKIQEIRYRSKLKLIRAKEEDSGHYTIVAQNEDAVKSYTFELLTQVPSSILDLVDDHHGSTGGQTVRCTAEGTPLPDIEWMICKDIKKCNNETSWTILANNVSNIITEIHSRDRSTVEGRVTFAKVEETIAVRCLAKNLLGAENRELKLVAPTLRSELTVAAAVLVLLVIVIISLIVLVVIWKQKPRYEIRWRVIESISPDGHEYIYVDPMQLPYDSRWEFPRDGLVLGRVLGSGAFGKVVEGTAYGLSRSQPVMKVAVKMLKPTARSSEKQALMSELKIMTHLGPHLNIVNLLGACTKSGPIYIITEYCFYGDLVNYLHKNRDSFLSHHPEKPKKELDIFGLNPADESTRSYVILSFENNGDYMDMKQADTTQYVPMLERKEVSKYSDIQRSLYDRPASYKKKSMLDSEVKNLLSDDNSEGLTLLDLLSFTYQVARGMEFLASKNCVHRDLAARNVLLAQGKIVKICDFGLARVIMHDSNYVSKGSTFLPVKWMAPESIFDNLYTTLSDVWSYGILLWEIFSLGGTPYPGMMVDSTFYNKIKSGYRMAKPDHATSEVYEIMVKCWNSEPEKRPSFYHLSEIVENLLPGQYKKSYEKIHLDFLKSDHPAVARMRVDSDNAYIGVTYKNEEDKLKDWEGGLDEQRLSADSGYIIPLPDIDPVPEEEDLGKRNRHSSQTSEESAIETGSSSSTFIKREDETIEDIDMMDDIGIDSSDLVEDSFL
# In short: as §1
# PAK4 = PAK4 (Homo sapiens, UniProt O96013)
# In short: as §1
# MET(M1250T) = MET(M1250T) (Homo sapiens, UniProt P08581, M1250T)
# In short: as §1
# CK1γ1 = target: T11, CK1γ1 (Homo sapiens, UniProt Q9HCP0)
# T11 construct: gene CSNK1G1
# In short: as §1
# ALK(G1202R) = ALK(G1202R) (Homo sapiens, UniProt Q9UM73, G1202R)
# In short: as §1
# SGK3 = SGK3 (Homo sapiens, UniProt Q96BR1)
# In short: as §1
# PDHK4 = target: T12, PDHK4 (Homo sapiens, UniProt Q16654)
# T12 construct: gene PDK4
# T12 sequence (Q16654 whole entry): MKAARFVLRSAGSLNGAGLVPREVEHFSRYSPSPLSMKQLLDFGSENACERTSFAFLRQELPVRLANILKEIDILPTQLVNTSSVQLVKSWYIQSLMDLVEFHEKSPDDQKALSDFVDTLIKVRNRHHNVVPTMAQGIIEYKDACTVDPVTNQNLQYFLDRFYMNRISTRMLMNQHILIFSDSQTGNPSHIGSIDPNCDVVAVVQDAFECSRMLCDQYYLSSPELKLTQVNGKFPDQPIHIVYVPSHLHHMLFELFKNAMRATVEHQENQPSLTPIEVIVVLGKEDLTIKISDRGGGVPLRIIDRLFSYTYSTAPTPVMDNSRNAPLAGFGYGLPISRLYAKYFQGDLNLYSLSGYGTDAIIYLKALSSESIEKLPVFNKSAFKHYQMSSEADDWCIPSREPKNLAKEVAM
# In short: as §1
# p38β = target: T13, p38β (Homo sapiens, UniProt Q15759)
# T13 construct: gene MAPK11
# T13 sequence (Q15759 whole entry): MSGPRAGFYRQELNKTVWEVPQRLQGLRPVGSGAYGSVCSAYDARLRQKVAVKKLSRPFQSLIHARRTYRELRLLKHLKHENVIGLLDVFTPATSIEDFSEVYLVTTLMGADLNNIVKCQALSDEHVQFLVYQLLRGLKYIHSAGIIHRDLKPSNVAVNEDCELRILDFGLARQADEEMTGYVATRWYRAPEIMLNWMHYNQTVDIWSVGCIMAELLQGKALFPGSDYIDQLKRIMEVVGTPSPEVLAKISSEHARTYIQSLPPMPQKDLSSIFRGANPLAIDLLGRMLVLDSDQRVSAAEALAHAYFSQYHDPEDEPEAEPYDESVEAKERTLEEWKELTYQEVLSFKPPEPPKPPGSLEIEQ
# In short: as §1
# NDR1 = target: T14, NDR1 (Homo sapiens, UniProt Q15208)
# T14 construct: gene STK38
# In short: as §1
# MST2 = target: T15, MST2 (Homo sapiens, UniProt Q13188)
# T15 construct: gene STK3
# In short: as §1
# TIE2 = target: T16, TIE2 (Homo sapiens, UniProt Q02763)
# T16 construct: gene TEK
# In short: as §1
# EPHA2 = EPHA2 (Homo sapiens, UniProt P29317)
# In short: as §1
structure (smiles),measurement,setting,value
"c1cc(-c2ccc3[nH]ncc3c2)ccn1 [TG693, 5-(4-pyridinyl)-1H-indazole]",inhibition at 1 µM,AurA,-6.2%
same,inhibition at 1 µM,MST4,4.1%
same,inhibition at 1 µM,ALK(C1156Y),0.1%
same,inhibition at 1 µM,HIPK3,-0.7%
same,inhibition at 1 µM,KDR,0.1%
same,inhibition at 1 µM,CK2α1/β,3.5%
same,inhibition at 1 µM,CaMK1α,1.5%
same,inhibition at 1 µM,JNK1,-18%
same,inhibition at 1 µM,FGFR3(K650E),5.2%
same,inhibition at 1 µM,SIK,3.2%
same,inhibition at 1 µM,HCK,-3%
same,inhibition at 1 µM,MST3,1%
same,inhibition at 1 µM,CaMK2α,-3.3%
same,inhibition at 1 µM,EPHA6,-3.5%
same,inhibition at 1 µM,MET(D1228H),0.6%
same,inhibition at 1 µM,TRKA,5.1%
same,inhibition at 1 µM,TSSK3,0.8%
same,inhibition at 1 µM,FLT3,17.5%
same,inhibition at 1 µM,PDGFRα(D842V),0.8%
same,inhibition at 1 µM,PAK4,-13.7%
same,inhibition at 1 µM,MET(M1250T),-0.8%
same,inhibition at 1 µM,CK1γ1,5%
same,inhibition at 1 µM,ALK(G1202R),3.8%
same,inhibition at 1 µM,SGK3,-3.2%
same,inhibition at 1 µM,PDHK4,3.1%
same,inhibition at 1 µM,p38β,-1.5%
same,inhibition at 1 µM,NDR1,11.5%
same,inhibition at 1 µM,MST2,0.5%
same,inhibition at 1 µM,TIE2,9.7%
same,inhibition at 1 µM,EPHA2,5.7%

# — publication PMC5448077, “Development of an orally available inhibitor of CLK1 for skipping a mutated dystrophin exon in Duchenne muscular dystrophy” (Scientific Reports, 2017)
